This note sets out measurements from patent US5138061A, “Thioacylating reagents” (BioChem Pharma Inc., priority 1989, dated 1992).

The subject of the assay is immature T-cell development (de novo antigens on T lymphocytes). Kind of assay: T cell development in nude athymic mice (thymopentin vs 4-thiothymopentin). It is filed as in vivo. As to conditions: 20 micrograms per subject. The text has this:
The incorporation of thioamide linkages at positions on the peptide backbone which are susceptible to degradation may be performed in order to increase the peptide's resistance to enzymatic digestion. This enhanced stability may afford greater biological activities to the peptides prolonged existence. For example, thymopentin, which is merely a biologically active fragment of the polypeptide thymopoietin, may be modified to elicit this response. […] A control group of nude athymic mice was administered 20 micrograms of thymopentin per subject according to well-known assay techniques. See, e.g., O. Archer, T. Pierce, B. Papermanter, and R. Good, "Reduced Antibody Response in Thymectomized Rabbits", Nature, 195, 191 (1962); D. Oscaba and J. Miller, "Evidence for a Humeral Thymus Factor Responsible for the Maturation of Immunological Faculty", Nature, 199, 653 (1963); P. Magrit, "T-Cell Development in Normal and Thymopentintreated Nude Mice", J. Exp. Med., 156, 1057 (1982). […]
The immunomodulatory action of thymopentin and 4-thiothymopentin on immature T-cell development by the expression of de novo antigens on T lymphocytes after daily subcutaneous injections for two weeks in four week old nude athymic mice was measured. […]

No end group written: not given here.

Take RKDVY [thymopentin]: the “mean increase for the maturation of T cells and related immune responses” value was 43%.
